Values after ≈ are worked out from the molar mass of the structure shown. Where two headings read alike, the source gives them in different places. Values belong to the compound of their own block, whether it stands above or below them.
Assays:
[1] = values reported in WO 2018/162793 or by its applicant in annex 1 during European prosecution; cited from earlier work
[2] = Determination of specific surface area (SSA), multi-point nitrogen adsorption BET; type: physicochemical; conditions: samples vacuum dried overnight at 45° C.; relative pressure 0.05-0.3 p/p0; eleven linear points
From the text: The term “about” includes the range of experimental errors, which can normally occur performing a measurement, e.g. ±5% or ±2% or ±1%. Sometimes, such a range can lie within the experimental error, typical of standard methods used for the measurement and/or determination of a given value or range. Particularly, the measurement uncertainty for the Multi-Point B.E.T. specific surface area parameter is equal to 15% for a SSA value greater than 2 m^2/g, and 20% for a SSA less than 2 m^2/g. It is expressed as extended uncertainty obtained by multiplying standard uncertainty by the coverage factor k equal to 2, corresponding to confidence level of about 95%. The uncertainty is related to the method of analysis and obtained as percent value from the analysis of a representative group of samples in the measurement range of the instrument.
Unless otherwise indicated, the data relative to the peaks in the XRPD pattern are meant within the common uncertainty due to the instrument measurement, typically ±0.2 degrees 2θ, when collected with the Kα radiation of copper (λ=1.5419 Å) at room temperature. The present invention provides, in one aspect, a new form of N-[(2S)-1-[3-(3-chloro-4-cyanophenyl)-1H-pyrazol-1-yl]-propan-2-yl]-5-(1-hydroxyethyl)-1H-pyrazole-3-carboxamide (darolutamide), herein called nanocrystalline form or NC form or Form NC, said nanocrystalline form being characterized by having specific surface area (SSA) in the range from about 40 m^2/g to about 150 m^2/g, preferably from about 50 m^2/g to about 135 m^2/g, more preferably from about 60 m^2/g to about 135 m^2/g analyzed using the multi-point nitrogen adsorption technique based on the Brunauer, Emmett and Teller (BET) theory, for example using TriStar (II) automated gas adsorption analyzer, (Micromeritics, Inc.). The samples are suitably vacuum dried overnight at 45° C. The volumetric method can be used at the relative pressure range of 0.05-0.3 p/p0 as reported in the experimental part. Specific surface area is an important physical property for an active pharmaceutical ingredient. This parameter can greatly influence the process of preparation of drugs, such as filtration, purification, blending, tableting as well as the characteristics of the active pharmaceutical ingredient especially its dissolution rate and, in turn, its bio-availability as generally known in the art, e.g. from Kyung Rok Chu et al. Effect of particle size on the dissolution behaviours of poorly water-soluble drugs, Arch. Pharm. Res., 2012 July, 35(7), 1187-95, DOI 10.1007/s12272-012-0709-3.
The specific surface area was measured using the multi-point nitrogen adsorption technique based on the Brunauer, Emmett and Teller (BET) theory using TriStar (II) automated gas adsorption analyzer (Micromeritics, Inc.). All the samples were dried under vacuum overnight hours at 45° C. The volumetric method was applied at the relative pressure range 0.05-0.3 p/p^0, and the Specific Surface Area values were calculated in said pressure range using “Multi-Point BET” calculation method based on eleven linear points.

[3] = Stability study at 40° C. and 75% RH (HPLC purity, XRPD); type: physicochemical; conditions: double PE bag in HDPE bottle, 1, 3, 6 and 12 months
Experimental: 5 aliquots of about 1 g of nanocrystalline form of present invention were stored at the following conditions wherein RH is referred to relative humidity: • 40° C. and 75% RH, double PE bag in HDPE bottle
The sample were analysed before the storage (To), after 1 month, 3 months, 6 months and 12 months using high performance chromatography (HPLC) method to control the purity and X-ray powder diffractogram (XRPD) to evaluate any change in crystalline form.

[4] = poorly soluble in the physiological pH range; cited from earlier work

SMILES: CC(O)c1cc(C(=O)N[C@@H](C)Cn2ccc(-c3ccc(C#N)c(Cl)c3)n2)[nH]n1 (stereo partly drawn) [Crystalline rounded particles sample A unmilled] [darolutamide]
Specific Surface Area (SSA) Multi-point BET [1]: 13 m^2/g

SMILES: CC(O)c1cc(C(=O)N[C@@H](C)Cn2ccc(-c3ccc(C#N)c(Cl)c3)n2)[nH]n1 (stereo partly drawn) [Comparative example 1a, darolutamide]
Specific Surface Area (SSA) Multi-point BET [2]: 26.6 m^2/g
Concentration of Darolutamide in saturated solution (0 min, pH 1): 0 µg/mL
Concentration of Darolutamide in saturated solution (0 min, pH 7.5): 0 µg/mL
Concentration of Darolutamide in saturated solution (5 min, pH 1): 20 µg/mL
Concentration of Darolutamide in saturated solution (5 min, pH 7.5): 20 µg/mL
Concentration of Darolutamide in saturated solution (10 min, pH 1): 20 µg/mL
Concentration of Darolutamide in saturated solution (10 min, pH 7.5): 21 µg/mL
Concentration of Darolutamide in saturated solution (60 min, pH 1): 17 µg/mL
Concentration of Darolutamide in saturated solution (60 min, pH 7.5): 19 µg/mL

SMILES: CC(O)c1cc(C(=O)N[C@@H](C)Cn2ccc(-c3ccc(C#N)c(Cl)c3)n2)[nH]n1 (stereo partly drawn) [Comparative example 1b, darolutamide]
Specific Surface Area (SSA) Multi-point BET [2]: 29.5 m^2/g

SMILES: CC(O)c1cc(C(=O)N[C@@H](C)Cn2ccc(-c3ccc(C#N)c(Cl)c3)n2)[nH]n1 (stereo partly drawn) [Comparative example 2, darolutamide]
Specific Surface Area (SSA) Multi-point BET [2]: 11.6 m^2/g
Concentration of Darolutamide in saturated solution (0 min, pH 1): 0 µg/mL
Concentration of Darolutamide in saturated solution (0 min, pH 7.5): 0 µg/mL
Concentration of Darolutamide in saturated solution (5 min, pH 1): 23 µg/mL
Concentration of Darolutamide in saturated solution (5 min, pH 7.5): 22 µg/mL
Concentration of Darolutamide in saturated solution (10 min, pH 1): 22 µg/mL
Concentration of Darolutamide in saturated solution (10 min, pH 7.5): 18 µg/mL
Concentration of Darolutamide in saturated solution (60 min, pH 1): 22 µg/mL
Concentration of Darolutamide in saturated solution (60 min, pH 7.5): 21 µg/mL

SMILES: CC(O)c1cc(C(=O)N[C@@H](C)Cn2ccc(-c3ccc(C#N)c(Cl)c3)n2)[nH]n1 (single isomer, unassigned) [Example 3, darolutamide]
Specific Surface Area (SSA) Multi-point BET [2]: 134.0 m^2/g
Concentration of Darolutamide in saturated solution (0 min, pH 1): 0 µg/mL
Concentration of Darolutamide in saturated solution (0 min, pH 7.5): 0 µg/mL
Concentration of Darolutamide in saturated solution (5 min, pH 1): 159 µg/mL
Concentration of Darolutamide in saturated solution (5 min, pH 7.5): 162 µg/mL
Concentration of Darolutamide in saturated solution (10 min, pH 1): 162 µg/mL
Concentration of Darolutamide in saturated solution (10 min, pH 7.5): 155 µg/mL
Concentration of Darolutamide in saturated solution (60 min, pH 1): 117 µg/mL
Concentration of Darolutamide in saturated solution (60 min, pH 7.5): 132 µg/mL

SMILES: CC(O)c1cc(C(=O)N[C@@H](C)Cn2ccc(-c3ccc(C#N)c(Cl)c3)n2)[nH]n1 (stereo partly drawn) [Crystalline rounded particles sample B unmilled] [darolutamide]
Specific Surface Area (SSA) Multi-point BET [1]: 12 m^2/g

SMILES: CC(O)c1cc(C(=O)N[C@@H](C)Cn2ccc(-c3ccc(C#N)c(Cl)c3)n2)[nH]n1 (stereo partly drawn) [Comparative example 1c, darolutamide]
Specific Surface Area (SSA) Multi-point BET [2]: 34.4 m^2/g

SMILES: CC(O)c1cc(C(=O)N[C@@H](C)Cn2ccc(-c3ccc(C#N)c(Cl)c3)n2)[nH]n1 (stereo partly drawn) [darolutamide, N-[(2S)-1-[3-(3-chloro-4-cyanophenyl)-1H-pyrazol-1-yl]-propan-2-yl]-5-(1-hydroxyethyl)-1H-pyrazole-3-carboxamide]
Biopharmaceutics Classification System (BCS) class [4]: class II

The next lines start with results.

solubility concentration (5 min): 120 to 160 µg/mL
SMILES: CC(O)c1cc(C(=O)N[C@@H](C)Cn2ccc(-c3ccc(C#N)c(Cl)c3)n2)[nH]n1 (stereo partly drawn) [nanocrystalline form, N-[(2S)-1-[3-(3-chloro-4-cyanophenyl)-1H-pyrazol-1-yl]-propan-2-yl]-5-(1-hydroxyethyl)-1H-pyrazole-3-carboxamide]
chemical stability: purity by HPLC versus initial profile at T0 [3]: does not present a significant worsening of the purity
physical stability: change in crystalline form by XRPD [3]: no signs of transformation into a different crystalline form

Specific Surface Area (SSA) Multi-point BET [2]: 66.6 m^2/g
SMILES: CC(O)c1cc(C(=O)N[C@@H](C)Cn2ccc(-c3ccc(C#N)c(Cl)c3)n2)[nH]n1 (stereo partly drawn) [Example 11, darolutamide]

Specific Surface Area (SSA) Multi-point BET [2]: 46.0 m^2/g
SMILES: CC(O)c1cc(C(=O)N[C@@H](C)Cn2ccc(-c3ccc(C#N)c(Cl)c3)n2)[nH]n1 (stereo partly drawn) [Example 23, darolutamide]

Specific Surface Area (SSA) Multi-point BET [2]: 43.8 m^2/g
SMILES: CC(O)c1cc(C(=O)N[C@@H](C)Cn2ccc(-c3ccc(C#N)c(Cl)c3)n2)[nH]n1 (stereo partly drawn) [Example 24, darolutamide]

Specific Surface Area (SSA) Multi-point BET [2]: 66.8 m^2/g
Concentration of Darolutamide in saturated solution (0 min, pH 1): 0 µg/mL
Concentration of Darolutamide in saturated solution (0 min, pH 7.5): 0 µg/mL
Concentration of Darolutamide in saturated solution (5 min, pH 1): 117 µg/mL
Concentration of Darolutamide in saturated solution (5 min, pH 7.5): 128 µg/mL
Concentration of Darolutamide in saturated solution (10 min, pH 1): 126 µg/mL
Concentration of Darolutamide in saturated solution (10 min, pH 7.5): 132 µg/mL
Concentration of Darolutamide in saturated solution (60 min, pH 1): 113 µg/mL
Concentration of Darolutamide in saturated solution (60 min, pH 7.5): 109 µg/mL
SMILES: CC(O)c1cc(C(=O)N[C@@H](C)Cn2ccc(-c3ccc(C#N)c(Cl)c3)n2)[nH]n1 (single isomer, unassigned) [Example 5, darolutamide]

Specific Surface Area (SSA) Multi-point BET [2]: 121.6 m^2/g
SMILES: CC(O)c1cc(C(=O)N[C@@H](C)Cn2ccc(-c3ccc(C#N)c(Cl)c3)n2)[nH]n1 (stereo partly drawn) [Example 10, darolutamide]

solubility concentration (5 min): 20 µg/mL (≈ 50.1 µM)
SMILES: CC(O)c1cc(C(=O)N[C@@H](C)Cn2ccc(-c3ccc(C#N)c(Cl)c3)n2)[nH]n1 (stereo partly drawn) [Form I, darolutamide]
Specific Surface Area (SSA) Multi-point BET [1]: 22.1 m^2/g

solubility concentration (5 min): 20 µg/mL
SMILES: CC(O)c1cc(C(=O)N[C@@H](C)Cn2ccc(-c3ccc(C#N)c(Cl)c3)n2)[nH]n1 (stereo partly drawn) [crystalline rounded particles, darolutamide]

Specific Surface Area (SSA) Multi-point BET [2]: 111.7 m^2/g
Concentration of Darolutamide in saturated solution (0 min, pH 1): 0 µg/mL
Concentration of Darolutamide in saturated solution (0 min, pH 7.5): 0 µg/mL
Concentration of Darolutamide in saturated solution (5 min, pH 1): 137 µg/mL
Concentration of Darolutamide in saturated solution (5 min, pH 7.5): 157 µg/mL
Concentration of Darolutamide in saturated solution (10 min, pH 1): 146 µg/mL
Concentration of Darolutamide in saturated solution (10 min, pH 7.5): 149 µg/mL
Concentration of Darolutamide in saturated solution (60 min, pH 1): 113 µg/mL
Concentration of Darolutamide in saturated solution (60 min, pH 7.5): 109 µg/mL
SMILES: CC(O)c1cc(C(=O)N[C@@H](C)Cn2ccc(-c3ccc(C#N)c(Cl)c3)n2)[nH]n1 (single isomer, unassigned) [Example 4, darolutamide]

From patent US20250179025A1, “CRYSTALLINE FORM OF DAROLUTAMIDE” (QUÍMICA SINTÉTICA, S.A., priority 2022, published 2025)
